# Data taken from US20090226527A1, “Particulate-stabilized injectable pharmacutical compositions of posaconazole” (priority 2004, published 2009).
# Several values for one entry are separate records, joined by “and”; a condition that tells them apart may be missing. Identical values can stand only once. Like-named read-outs stand apart in the source and are kept apart here.
# Tested on: infectious agents (strains tested)
# Test: organism not typed
# Assay type: cell-based
smiles,measurement,setting,value
OC(Cn1cncn1)(Cn1cncn1)c1ccc(F)cc1F [FLZ],Geometric Mean MIC,,16.450 µg/mL and 19.027 µg/mL
same,Geometric Mean MIC,Absidia spp,143.675 µg/mL
same,Geometric Mean MIC,Apophysomyces spp,128.000 µg/mL
same,MIC[90],Apophysomyces spp,(128.0) μg/mL
same,Geometric Mean MIC,Aspergillus flavus,220.898 µg/mL
same,MIC[90],Aspergillus fumigatus,512.0 µg/mL
same,Geometric Mean MIC,Aspergillus nidulans,76.109 µg/mL
same,MIC[90],Aspergillus nidulans,(32.0-128.0) μg/mL
same,Geometric Mean MIC,Aspergillus niger,234.753 µg/mL
same,Geometric Mean MIC,Aspergillus sydowii,115.933 µg/mL
same,Geometric Mean MIC,Aspergillus terreus,208.327 µg/mL
same,Geometric Mean MIC,Aspergillus ustus,172.275 µg/mL
same,Geometric Mean MIC,Bipolaris spp,64.000 µg/mL
same,MIC[90],Bipolaris spp,(64.0) μg/mL
same,Geometric Mean MIC,Bjerkandera adusta,4.000 µg/mL
same,MIC[90],Bjerkandera adusta,4.0 µg/mL
same,Geometric Mean MIC,Blastomyces dermatitidis,2.191 µg/mL
same,MIC[90],Blastomyces dermatitidis,16.0 µg/mL
same,Geometric Mean MIC,Candida albicans,0.415 µg/mL
same,MIC[90],Candida albicans,2.0 µg/mL
same,Geometric Mean MIC,Candida dubliniensis,0.454 µg/mL
same,MIC[90],Candida dubliniensis,32.0 µg/mL
same,Geometric Mean MIC,Candida famata,4.084 µg/mL
same,MIC[90],Candida famata,32.0 µg/mL
same,Geometric Mean MIC,Candida glabrata,9.719 µg/mL
same,MIC[90],Candida glabrata,64.0 µg/mL
same,Geometric Mean MIC,Candida guilliermondii,4.000 µg/mL
same,MIC[90],Candida guilliermondii,32.0 µg/mL
same,Geometric Mean MIC,Candida kefyr,0.500 µg/mL
same,MIC[90],Candida kefyr,4.0 µg/mL
same,Geometric Mean MIC,Candida krusei,32.521 µg/mL
same,MIC[90],Candida krusei,64.0 µg/mL
same,Geometric Mean MIC,Candida lusitaniae,0.627 µg/mL
same,MIC[90],Candida lusitaniae,2.0 µg/mL
same,Geometric Mean MIC,Candida parapsilosis,0.910 µg/mL
same,MIC[90],Candida parapsilosis,2.0 µg/mL
same,Geometric Mean MIC,Candida rugosa,3.391 µg/mL
same,MIC[90],Candida rugosa,16.0 µg/mL
same,Geometric Mean MIC,Candida tropicalis,0.961 µg/mL
same,MIC[90],Candida tropicalis,4.0 µg/mL
same,Geometric Mean MIC,Candida zeylanoides,0.354 µg/mL
same,MIC[90],Candida zeylanoides,(0.125-1.0) μg/mL
same,Geometric Mean MIC,Cryptococcus laurentii,5.040 µg/mL
same,MIC[90],Cryptococcus laurentii,(4.0-8.0) μg/mL
same,Geometric Mean MIC,Cryptococcus neoformans,1.781 µg/mL
same,MIC[90],Cryptococcus neoformans,8.0 µg/mL
same,Geometric Mean MIC,Curvularia spp,16.000 µg/mL
same,MIC[90],Curvularia spp,(16.0) μg/mL
same,Geometric Mean MIC,Epidermophyton floccosum,1.447 µg/mL
same,MIC[90],Epidermophyton floccosum,2.0 µg/mL
same,Geometric Mean MIC,Exophiala dermatidis,8.000 µg/mL
same,MIC[90],Exophiala dermatidis,(8.0) μg/mL
same,Geometric Mean MIC,Fonsecae pedrosoi,64.000 µg/mL
same,MIC[90],Fonsecae pedrosoi,(64.0) μg/mL
same,Geometric Mean MIC,Kluyveromyces marxianus,0.500 µg/mL
same,MIC[90],Kluyveromyces marxianus,(0.25-1.0) μg/mL
same,Geometric Mean MIC,Microsporum canis,2.000 µg/mL
same,MIC[90],Microsporum canis,4.0 µg/mL
same,Geometric Mean MIC,Microsporum gypseum,16.000 µg/mL
same,MIC[90],Microsporum gypseum,(4.0-128.0) μg/mL
same,Geometric Mean MIC,Microsporum persicolor,128.000 µg/mL
same,MIC[90],Microsporum persicolor,(128.0) μg/mL
same,Geometric Mean MIC,Mucor spp,207.937 µg/mL
same,Geometric Mean MIC,Paecilomyces spp,141.323 µg/mL
same,Geometric Mean MIC,Paracoccidioides brasiliensis,0.766 µg/mL
same,MIC[90],Paracoccidioides brasiliensis,4.0 µg/mL
same,Geometric Mean MIC,Penicillium spp,220.996 µg/mL
same,Geometric Mean MIC,Pichia anomala,2.670 µg/mL
same,MIC[90],Pichia anomala,4.0 µg/mL
same,Geometric Mean MIC,Pichia etchel,0.125 µg/mL
same,MIC[90],Pichia etchel,(0.125) μg/mL
same,Geometric Mean MIC,Pichia ohmeri,4.000 µg/mL
same,MIC[90],Pichia ohmeri,(4.0) μg/mL
same,Geometric Mean MIC,Pseudallescheria boydii,41.237 µg/mL
same,MIC[90],Pseudallescheria boydii,128.0 µg/mL
same,Geometric Mean MIC,Ramichloridium obovoideum,22.627 µg/mL
same,MIC[90],Ramichloridium obovoideum,(16.0-32.0) μg/mL
same,Geometric Mean MIC,Rhizopus spp,229.461 µg/mL
same,Geometric Mean MIC,Saccharomyces cerevisiae,2.845 µg/mL
same,MIC[90],Saccharomyces cerevisiae,16.0 µg/mL
same,Geometric Mean MIC,Scedosporium apiospermum,84.449 µg/mL
same,Geometric Mean MIC,Trichophyton mentagrophytes,9.190 µg/mL
same,MIC[90],Trichophyton mentagrophytes,64.0 µg/mL
same,Geometric Mean MIC,Trichophyton raubitschekii,128.000 µg/mL
same,MIC[90],Trichophyton raubitschekii,(128.0) μg/mL
same,Geometric Mean MIC,Trichophyton rubrum,4.407 µg/mL
same,MIC[90],Trichophyton rubrum,32.0 µg/mL
same,Geometric Mean MIC,Trichophyton soudanense,128.000 µg/mL
same,MIC[90],Trichophyton soudanense,(128.0) μg/mL
same,Geometric Mean MIC,Trichophyton terrestre,1.000 µg/mL
same,MIC[90],Trichophyton terrestre,(1.0) μg/mL
same,Geometric Mean MIC,Trichophyton tonsurans,3.775 µg/mL
same,MIC[90],Trichophyton tonsurans,32.0 µg/mL
same,Geometric Mean MIC,Trichosporon spp,12.699 µg/mL
same,MIC[90],Trichosporon spp,(4.0-64.0) μg/mL
same,Geometric Mean MIC,Yarrowia lipolytica,1.741 µg/mL
same,MIC[90],Yarrowia lipolytica,(0.125-32.0) μg/mL
C[C@@H](c1ncncc1F)[C@](O)(Cn1cncn1)c1ccc(F)cc1F [Voriconazole],MIC,"Absidia spp, read-out: Geometric Mean MIC",40.3 µg/mL
same,MIC,"Absidia spp, read-out: MIC[90]",8 to 128 µg/mL
same,MIC,"Apophysomyces spp, read-out: Geometric Mean MIC",42.2 µg/mL
same,MIC,"Apophysomyces spp, read-out: MIC[90]",16 to 128 µg/mL
same,MIC,"Aspergillus flavus, read-out: Geometric Mean MIC",0.339 µg/mL
same,MIC,"Aspergillus flavus, read-out: MIC[90]",1 µg/mL
same,MIC,"Aspergillus fumigatus, read-out: Geometric Mean MIC",0.282 µg/mL
same,MIC,"Aspergillus fumigatus, read-out: MIC[90]",0.5 µg/mL
same,MIC,"Aspergillus nidulans, read-out: Geometric Mean MIC",0.07 µg/mL
same,MIC,"Aspergillus nidulans, read-out: MIC[90]",0.031 to 0.125 µg/mL
same,MIC,"Aspergillus niger, read-out: Geometric Mean MIC",0.48 µg/mL
same,MIC,"Aspergillus niger, read-out: MIC[90]",2 µg/mL
same,MIC,"Aspergillus sydowii, read-out: Geometric Mean MIC",0.397 µg/mL
same,MIC,"Aspergillus sydowii, read-out: MIC[90]",0.25 to 1 µg/mL
same,MIC,"Aspergillus terreus, read-out: Geometric Mean MIC",0.312 µg/mL
same,MIC,"Aspergillus terreus, read-out: MIC[90]",0.5 µg/mL
same,MIC,"Aspergillus ustus, read-out: Geometric Mean MIC",1.19 µg/mL
same,MIC,"Aspergillus ustus, read-out: MIC[90]",0.25 to 2 µg/mL
same,MIC,"Bipolaris spp, read-out: Geometric Mean MIC",1 µg/mL
same,MIC,"Bipolaris spp, read-out: MIC[90]",1 µg/mL
same,MIC,"Bjerkandera adusta, read-out: Geometric Mean MIC",0.216 µg/mL
same,MIC,"Bjerkandera adusta, read-out: MIC[90]",0.25 µg/mL
same,MIC,"Candida albicans, read-out: Geometric Mean MIC",0.021 µg/mL
same,MIC,"Candida albicans, read-out: MIC[90]",0.063 µg/mL
same,MIC,"Candida dubliniensis, read-out: Geometric Mean MIC",0.028 µg/mL
same,MIC,"Candida dubliniensis, read-out: MIC[90]",0.125 µg/mL
same,MIC,"Candida tropicalis, read-out: Geometric Mean MIC",0.075 µg/mL
same,MIC,"Candida tropicalis, read-out: MIC[90]",0.5 µg/mL
same,MIC,"Clavispora lusitaniae, Candida lusitaniae, read-out: Geometric Mean MIC",0.023 µg/mL
same,MIC,"Clavispora lusitaniae, Candida lusitaniae, read-out: MIC[90]",0.063 µg/mL
same,MIC,"Cryptococcus neoformans, read-out: Geometric Mean MIC",0.054 µg/mL
same,MIC,"Cryptococcus neoformans, read-out: MIC[90]",0.125 µg/mL
same,MIC,"Curvularia spp, read-out: Geometric Mean MIC",0.125 µg/mL
same,MIC,"Curvularia spp, read-out: MIC[90]",0.125 µg/mL
same,MIC,"Debaryomyces hansenii, Candida famata, read-out: Geometric Mean MIC",0.072 µg/mL
same,MIC,"Debaryomyces hansenii, Candida famata, read-out: MIC[90]",0.008 to 0.5 µg/mL
same,MIC,"Diutina rugosa, Candida rugosa, read-out: Geometric Mean MIC",0.072 µg/mL
same,MIC,"Diutina rugosa, Candida rugosa, read-out: MIC[90]",0.5 µg/mL
same,MIC,"Dujonia zeylanoides, Candida zeylanoides, read-out: Geometric Mean MIC",0.039 µg/mL
same,MIC,"Dujonia zeylanoides, Candida zeylanoides, read-out: MIC[90]",0.008 to 0.125 µg/mL
same,MIC,"Epidermophyton floccosum, read-out: Geometric Mean MIC",0.015 µg/mL
same,MIC,"Epidermophyton floccosum, read-out: MIC[90]",0.016 µg/mL
same,MIC,"Exophiala dermatidis, read-out: Geometric Mean MIC",0.063 µg/mL
same,MIC,"Exophiala dermatidis, read-out: MIC[90]",0.063 µg/mL
same,MIC,"Exophiala dermatitidis, Wangiella dermatitidis, read-out: Geometric Mean MIC",1 µg/mL
same,MIC,"Exophiala dermatitidis, Wangiella dermatitidis, read-out: MIC[90]",1 µg/mL
same,MIC,"Exophiala jeanselmei, read-out: Geometric Mean MIC",0.794 µg/mL
same,MIC,"Exophiala jeanselmei, read-out: MIC[90]",0.5 to 1 µg/mL
same,MIC,"Fonsecae pedrosoi, read-out: Geometric Mean MIC",0.5 µg/mL
same,MIC,"Fonsecae pedrosoi, read-out: MIC[90]",0.5 µg/mL
same,MIC,"Fusarium spp, read-out: Geometric Mean MIC",4.42 µg/mL
same,MIC,"Fusarium spp, read-out: MIC[90]",16 µg/mL
same,MIC,"Kluyveromyces marxianus, Candida kefyr, read-out: Geometric Mean MIC",0.031 µg/mL
same,MIC,"Kluyveromyces marxianus, Candida kefyr, read-out: MIC[90]",0.031 µg/mL
same,MIC,"Lodderomyces parapsilosis, Candida parapsilosis, read-out: Geometric Mean MIC",0.036 µg/mL
same,MIC,"Lodderomyces parapsilosis, Candida parapsilosis, read-out: MIC[90]",0.125 µg/mL
same,MIC,"Meyerozyma guilliermondii, Candida guilliermondii, read-out: Geometric Mean MIC",0.112 µg/mL
same,MIC,"Meyerozyma guilliermondii, Candida guilliermondii, read-out: MIC[90]",8 µg/mL
same,MIC,"Microsporum canis, read-out: Geometric Mean MIC",0.018 µg/mL
same,MIC,"Microsporum canis, read-out: MIC[90]",0.031 µg/mL
same,MIC,"Mucor spp, read-out: Geometric Mean MIC",24.7 µg/mL
same,MIC,"Mucor spp, read-out: MIC[90]",1 to 128 µg/mL
same,MIC,"Nakaseomyces glabratus, Candida glabrata, read-out: Geometric Mean MIC",0.305 µg/mL
same,MIC,"Nakaseomyces glabratus, Candida glabrata, read-out: MIC[90]",2 µg/mL
same,MIC,"Paecilomyces spp, read-out: Geometric Mean MIC",0.324 µg/mL
same,MIC,"Paecilomyces spp, read-out: MIC[90]",0.031 to 2 µg/mL
same,MIC,"Papiliotrema laurentii, Cryptococcus laurentii, read-out: Geometric Mean MIC",0.25 µg/mL
same,MIC,"Papiliotrema laurentii, Cryptococcus laurentii, read-out: MIC[90]",0.25 µg/mL
same,MIC,"Penicillium spp, read-out: Geometric Mean MIC",0.622 µg/mL
same,MIC,"Penicillium spp, read-out: MIC[90]",2 µg/mL
same,MIC,"Pichia kudriavzevii, Candida krusei, read-out: Geometric Mean MIC",0.346 µg/mL
same,MIC,"Pichia kudriavzevii, Candida krusei, read-out: MIC[90]",0.5 µg/mL
same,MIC,"Rhizomucor spp, read-out: Geometric Mean MIC",2 µg/mL
same,MIC,"Rhizomucor spp, read-out: MIC[90]",2 µg/mL
same,MIC,"Rhizopus spp, read-out: Geometric Mean MIC",8 µg/mL
same,MIC,"Rhizopus spp, read-out: MIC[90]",1 to 32 µg/mL
same,MIC,"Saccharomyces cerevisiae, read-out: Geometric Mean MIC",0.05 µg/mL
same,MIC,"Saccharomyces cerevisiae, read-out: MIC[90]",0.125 µg/mL
same,MIC,"Scedosporium apiospermum, read-out: Geometric Mean MIC",0.098 µg/mL
same,MIC,"Scedosporium apiospermum, read-out: MIC[90]",0.5 µg/mL
same,MIC,"Scedosporium boydii, Pseudallescheria boydii, read-out: Geometric Mean MIC",0.25 µg/mL
same,MIC,"Scedosporium boydii, Pseudallescheria boydii, read-out: MIC[90]",0.125 to 0.5 µg/mL
same,MIC,"Trichophyton mentagrophytes, read-out: Geometric Mean MIC",0.038 µg/mL
same,MIC,"Trichophyton mentagrophytes, read-out: MIC[90]",0.25 µg/mL
same,MIC,"Trichophyton rubrum, read-out: Geometric Mean MIC",0.021 µg/mL
same,MIC,"Trichophyton rubrum, read-out: MIC[90]",0.063 µg/mL
same,MIC,"Trichophyton tonsurans, read-out: Geometric Mean MIC",0.043 µg/mL
same,MIC,"Trichophyton tonsurans, read-out: MIC[90]",0.063 µg/mL
same,MIC,"Trichosporon spp, read-out: Geometric Mean MIC",0.125 µg/mL
same,MIC,"Trichosporon spp, read-out: MIC[90]",0.125 µg/mL
